Data from PubChem BioAssay (NCI).
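48-hour exposure; five concentrations; linearly interpolated endpoints. Here, GI50 denotes the concentration required for 50% inhibition of growth. At the TGI there is no net growth.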

Key:
Assay in all cases: NCI anticancer screen, dose series, 48 h
[1] = system: CAKI-1 renal
[2] = system: SW-620 colon
[3] = system: COLO 205 colon
[4] = system: ACHN renal
[5] = system: SF-268 CNS
[6] = system: T-47D breast
[7] = system: MOLT-4 leukemia
[8] = system: HS 578T breast
[9] = system: UO-31 renal
[10] = system: K-562 leukemia

Compound | TGI [1] | TGI [2] | GI50 [3] | TGI [3] | TGI [4] | GI50 [5] | TGI [5] | GI50 [6] | TGI [6] | TGI [7] | TGI [8] | GI50 [9] | TGI [9] | TGI [10] | GI50 [1] | GI50 [2] | GI50 [4] | GI50 [7] | GI50 [8] | GI50 [10]
CN1CC[C@]2(c3cccc(O)c3)CC(=O)/C(=C/c3ccccc3)[C@H]1C2 | 9.93 µM | 11.9 µM | 3.06 µM | 8.43 µM | 7.03 µM | 6.04 µM | 18.2 µM | 2.57 µM | 7.44 µM | 6.96 µM | 12.1 µM | 2 µM | 9.83 µM | 17.7 µM |  |  |  |  |  | 
CCN(CC)CCOc1ccc(/C=C2\C[C@H]3[C@H]4CC=C5C[C@@H](O)CC[C@]5(C)[C@H]4CC[C@]3(C)[C@H]2O)cc1OC | 15.9 µM | 11.7 µM | 12.8 µM | > 50 µM | 17.4 µM | 14.9 µM | 47 µM | 24.5 µM | > 50 µM | > 50 µM | 18.7 µM | 7.23 µM | 18 µM | 32 µM | 7.14 µM | 1.93 µM | 9.23 µM | 10.5 µM | 8.66 µM | 8.09 µM
COc1cc2nc(-c3ccc(Cl)cc3)cc(OCCCN3CCCC3)c2cc1OC | 4.15 µM | 13.1 µM | 0.459 µM | 3.12 µM | 8.39 µM | 2.53 µM | 15.5 µM | 1.02 µM | 10.5 µM | 3.47 µM | 6.68 µM | 1.72 µM | 6.63 µM | 4.68 µM | 0.303 µM | 3.12 µM | 1.93 µM | 1.5 µM | 1.89 µM | 1.06 µM
CN(C)CCC=C1c2ccccc2C(C)(C)c2ccccc21 | 23.6 µM | 26.2 µM | 3.82 µM | 14.3 µM | 27.9 µM | 14.7 µM | 27.8 µM | 11.5 µM | 27.4 µM | 23 µM | 29.8 µM | 4.8 µM | 20.7 µM | 19 µM | 8.56 µM | 13.3 µM | 14.7 µM | 7.18 µM | 9.03 µM | 3 µM
Clc1cc2c(nn1)Nc1ccccc1S2 | > 100 µM | > 100 µM | > 100 µM | > 100 µM | > 100 µM | > 100 µM | > 100 µM | > 100 µM | > 100 µM | > 100 µM | > 100 µM | > 100 µM | > 100 µM | > 100 µM | > 100 µM | > 100 µM | > 100 µM | > 100 µM | 38.4 µM | > 100 µM
O=c1c2cccc(F)c2sc2c(N3CCNCC3)nc3ccccc3c12 | 2.73 µM | 2.28 µM | 1.43 µM | 3.17 µM | 2.43 µM | 1.55 µM | 3.26 µM | 1.67 µM | 3.59 µM | 1.71 µM | 3.66 µM | 0.597 µM | 2.04 µM |  | 1.35 µM | 0.974 µM | 1.19 µM | 0.449 µM | 1.62 µM | 
COc1ccc(CNC(C)C(=O)O)cc1 (stereo unspecified) | > 100 µM | > 100 µM |  | > 100 µM | > 100 µM |  | > 100 µM |  | > 100 µM | > 100 µM | > 100 µM |  | > 100 µM | > 100 µM |  |  |  |  |  | 
COC1=C(Br)C(O)C2(C=C1Br)CC(C(=O)NCCCCNC(=O)C1=NOC3(C=C(Br)C(OC)=C(Br)C3O)C1)=NO2 (stereo unspecified) | > 100 µM | > 100 µM |  | 30.9 µM | 75.1 µM |  | 45.1 µM |  | 62.9 µM |  | 46.9 µM |  | > 100 µM | 55.4 µM |  |  |  |  |  | 
Nc1nc2c(nnn2C2OC(CO)C(O)C2O)c(=O)[nH]1 (stereo unspecified) | > 100 µM | > 100 µM | 0.393 µM | 1.67 µM | > 100 µM | 3.15 µM | > 100 µM | 2.87 µM | > 100 µM | > 100 µM | > 100 µM | 1.71 µM | > 100 µM | > 100 µM | 0.567 µM | 1.18 µM | 0.298 µM | 0.847 µM | 12 µM | 2.06 µM
NC1CCC(Nc2nc(NCc3cc(Cl)ccc3O)c3ncn(C4CCCC4)c3n2)CC1 (stereo unspecified) | 1.57 µM | 0.922 µM | 0.0965 µM | 0.238 µM | 0.527 µM | 0.188 µM | 0.52 µM | 0.259 µM | 0.858 µM | 0.492 µM | 0.893 µM | 0.227 µM | 0.599 µM | 0.461 µM | 0.295 µM | 0.15 µM | 0.183 µM | 0.133 µM | 0.222 µM | 0.175 µM
CCOC(=O)c1ccc2c(c1)nc(/C=C/c1ccc(Cl)cc1)n2-c1cc(C(C)(C)C)[nH]n1 | 61.2 µM | > 100 µM | 28.6 µM | > 100 µM | 5.75 µM | 5.86 µM | > 100 µM | 5.82 µM | 52.4 µM | > 100 µM | 61.8 µM | 2.71 µM | 25.3 µM | > 100 µM | 5.04 µM | 12.8 µM | 2.03 µM | 4.74 µM | 3.6 µM | 4.41 µM
O=C1C(Nc2ccc(Br)cc2)=C(I)C(=O)c2ncccc21 | 1.34 µM | 1.51 µM | 1.19 µM | 3.49 µM | 1.56 µM | 1.13 µM | 4.94 µM | 0.954 µM | 2.24 µM | 3.48 µM | 26 µM | 0.641 µM | 1.85 µM | 3.61 µM | 0.677 µM | 0.531 µM | 0.738 µM | 0.912 µM | 1.59 µM | 0.499 µM
NS(=O)(=O)c1ccc(NCc2cnc3ccccc3n2)cc1 | > 100 µM | > 100 µM |  | > 100 µM | > 100 µM |  | > 100 µM |  | > 100 µM | > 100 µM | > 100 µM |  | > 100 µM | > 100 µM |  |  |  |  |  | 
